From US10287311B2, “Modified fluorinated nucleoside analogues” (priority 2003, dated 2019)
Like-named read-outs stand apart in the source and are kept apart here.

How the values were obtained:
[1] = tested on: female Swiss mice
[2] = tested on: HepG2 cells; test: Mitochondria toxicity assay; assay type: cell-based; details: 7 days
Procedure: Fifty microliters of 2× drug dilutions were added per well in a 96 well plate. […] Ribosomal DNA levels were used to determine specific toxicity to mitochondria or generally cytotoxicity. HepG2 cells (5,000 cells/well at 50 μl) were added to the plate. The plate was incubated at 37° C. in a humidified 5% CO2 atmosphere for 7 days. After incubation, the supernatant was removed and stored for lactic acid quantification, and total DNA was extracted from cells as described in the RNeasy 96 handbook (February 1999), pages 22-23. No DNA digestions were performed, therefore total RNA and DNA were extracted. The extracted DNA was amplified and the change in mitochondrial DNA and ribosomal DNA for each sample was determined. The fold difference in mitochondrial DNA normalized for ribosomal DNA relative to control was calculated. Lactic acid quantification was performed by the D-Lactic Acid/L-Lactic acid test kit (Boehringer Mannheim/R-Biopharm/Roche). The total amount of lactic acid produced for each sample was found as well as the fold change in lactic acid production (% of lactic acid/% of rDNA) as described in the manufacturers instructions.

[3] = tested on: VEE; test: organism not typed; assay type: cell-based; details: Vero
[4] = tested on: RSV; test: Antiviral activity, RSV; assay type: cell-based; details: human respiratory syncytial virus
[5] = tested on: SARSCoV; test: organism not typed; assay type: cell-based; details: Vero
[6] = tested on: Human bone marrow cells, CFU-GM; test: Bone marrow toxicity assay, CFU-GM; assay type: cell-based; details: CFU-GM
Procedure: (§1) The culture assays for CFU-GM and BFU-E are performed using a bilayer soft agar or methylcellulose method. Drugs are diluted in tissue culture medium and filtered. After 14 to 18 days at 37° C. in a humidified atmosphere of 5% CO2 in air, colonies of greater than 50 cells are counted using an inverted microscope. The results are presented as the percent inhibition of colony formation in the presence of drug compared to solvent control cultures.

[7] = tested on: Rhinovirus Type 2; test: Antiviral activity, Rhinovirus Type 2 in KB cells; assay type: cell-based; details: for EC50: Enterovirus, Rhinovirus Type 2, KB
[8] = Cytotoxicity assay (MTS), CEM; assay type: cell-based; details: human, CEM cells
Procedure: (§2) 50 μl of 2× drug dilutions were added per well in a 96 well plate. Final concentrations of drug ranged from 1 to 100 μM. A “no drug” (media only) control was used to determine the minimum absorbance values and a “cells+media only” control was used for maximum absorbance value. A solvent control was also used. Cells were then added (PBM: 5×10^4 cells/well; CEM: 2.5×10^3 cells/well; Vero, HepG2, Huh-7, and Clone A: 5×10^3 cells/well) and incubated at 37° C. in a humidified 5% CO2 atmosphere for 3-5 days (PBM: 5 days; CEM: 3 days, all others: 4 days). After incubation, 20 μl of MTS dye was added from Cell Titer Aqueous One Solution Cell Proliferation Assay to each well and the plate was re-incubated for 2-4 hours. The absorbance (490 nm) was then read on an ELISA plate reader using the media only/no cell wells as blanks. Percent inhibition was found and used to calculate the CC50.

[9] = in vitro; details: human
[10] = Cytotoxicity (CPE, Neutral Red) in MDCK cells of the antiviral tests; details: dog, MDCK cells
[11] = tested on: MDCK cells; test: as above; details: MDCK, Influenza B test
[12] = tested on: replicon HCV RNA; test: HCV replicon assay (clone not specified)
[13] = in vitro; details: African green monkey
[14] = tested on: Dengue Type 2; test: Antiviral activity, Dengue Type 2 in Vero cells; assay type: cell-based, Dengue virus; details: for EC50: Dengue Type 2, Vero
[15] = Cytotoxicity assay (MTS), all cell lines tested; assay type: cell-based; details: human, bovine, African green monkey, Clone A, Huh7, HepG2, MDBK, PBM, CEM, Vero and MRC-5 cells; summary in text over all cell lines
Procedure: as §2
In contrast is the relative toxicity of 2′-C-methyladenosine.

[16] = Pharmacokinetics in Rhesus monkeys; assay type: in vivo; details: single oral dose 33.3 mg/kg, Mean ± SD, preliminary
Procedure: FIG. 3 depicts the pharmacokinetics of β-D-(2′R)-2′-deoxy-2′-fluoro-2′-C-methylcytidine in Rhesus monkeys given a single dose (33.3 mg/kg) oral or intravenous dose of β-D-(2′R)-2′-deoxy-2′-fluoro-2′-C-methylcytidine.

[17] = Cytotoxicity assay (MTS), Huh7; assay type: cell-based; details: human, Huh7 cells
Procedure: as §2

[18] = tested on: Influenza B; test: microbe, parasite or virus in culture; assay type: cell-based; details: MDCK
[19] = tested on: Vero cells
[20] = Cytotoxicity assay (MTS), HepG2; assay type: cell-based; details: human, HepG2 cells
Procedure: as §2

[21] = tested on: Human bone marrow cells, BFU-E; test: Bone marrow toxicity assay, BFU-E; assay type: cell-based; details: Bone marrow cell
Procedure: as §1

[22] = tested on: Yellow Fever virus; assay type: cell-based
[23] = Cytotoxicity assay (MTS), CloneA; assay type: cell-based; details: human, Clone A cells
Procedure: as §2

[24] = tested on: BVDV; test: (BVDV) yield reduction assay; assay type: cell-based, bovine viral diarrhea virus; details: for EC90: Bovine viral diarrhea virus isolates and strains
Procedure: Madin-Darby Bovine Kidney (MDBK) cells were grown in Dulbecco's modified eagle medium supplemented with 10% horse serum and 100 μg/ml penicillin-streptomycin. Cells were seeded in a 96-well plate at 5×10^3 cells/well and incubated for 72h at 37° C. in a humidified 5% CO2 atmosphere. Cells were infected with either cytopathic (NADL strain) or noncytopathic (SD-1 strain) BVDV at a virus dilution of 10-2 and incubated for 45 min. Cell monolayers were washed three times with medium. Fresh medium-containing test compounds in dose response concentrations or ribavirin, as a positive control, were added to cultures and medium containing no drug was added to the no-drug controls. After 72h incubation, supernatant was collected and viral RNA was extracted using the QIAmp Viral RNA Mini Kit (Qiagen, CA). Viral load was determined by Q-RT-PCR using primers specific for either NADL or SD-1 (1).

[25] = Cytotoxicity assay (MTS), Vero; assay type: cell-based; details: African green monkey, Vero cells
Procedure: as §2

[26] = tested on: West Nile virus; test: Antiviral activity, West Nile virus in Vero cells; assay type: cell-based; details: for EC50: West Nile virus, West Nile, Vero
[27] = tested on: HBV; test: Antiviral activity, HBV; assay type: cell-based
[28] = tested on: HIV; test: microbe, parasite or virus in culture; assay type: cell-based
[29] = Cytotoxicity (CPE, Neutral Red) in KB cells of the antiviral tests; details: human
[30] = Cytotoxicity assay (MTS), PBM; assay type: cell-based; details: PBM cells
Procedure: as §2

[31] = tested on: Coronavirus 229E; test: Antiviral activity, Coronavirus 229E; assay type: cell-based
[32] = Cytotoxicity assay (MTS), MDBK; assay type: cell-based; details: bovine, MDBK cells
[33] = Cytotoxicity assay (MTS), MRC-5; assay type: cell-based; details: human, MRC-5 cells; MRC-5, MTS assay
[34] = target: HCV 1b NS5B polymerase, Wild-Type NS5B (Hepatitis C virus genotype 1b, UniProt Q9WMX2)
HCV 1b NS5B polymerase, Wild-Type NS5B, sequence (Q9WMX2 2420-3010): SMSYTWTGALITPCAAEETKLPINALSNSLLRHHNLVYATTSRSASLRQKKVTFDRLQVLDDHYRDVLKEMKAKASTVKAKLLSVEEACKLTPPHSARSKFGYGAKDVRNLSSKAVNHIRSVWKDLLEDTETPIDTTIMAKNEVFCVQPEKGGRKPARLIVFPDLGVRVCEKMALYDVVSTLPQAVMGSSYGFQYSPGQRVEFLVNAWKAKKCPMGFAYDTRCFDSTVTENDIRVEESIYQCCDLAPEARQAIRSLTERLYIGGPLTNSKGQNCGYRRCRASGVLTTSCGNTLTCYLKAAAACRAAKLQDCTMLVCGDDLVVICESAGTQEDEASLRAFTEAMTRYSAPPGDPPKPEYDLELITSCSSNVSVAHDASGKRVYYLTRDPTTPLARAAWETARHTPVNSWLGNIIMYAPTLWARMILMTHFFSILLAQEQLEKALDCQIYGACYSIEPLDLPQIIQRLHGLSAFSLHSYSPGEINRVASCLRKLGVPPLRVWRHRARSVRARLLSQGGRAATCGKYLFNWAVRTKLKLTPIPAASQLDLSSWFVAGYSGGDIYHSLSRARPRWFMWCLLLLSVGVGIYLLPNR

[35] = Neutral Red, read-out: EC50, NR

SMILES: C[C@@]1(F)[C@H](O)[C@@H](CO)O[C@H]1n1ccc(N)nc1=O
- deaths during the 30-day study ([1]; female Swiss mice, intraperitoneal, days 0 to 5, 0, 3.3, 10, 33, 100 mg/kg): no mice died
- toxicity observed in the mice ([1]; mouse, in vivo): No significant toxicity
- Lactic Acid Increase [2]: No effect ≥ 33 μM
- IC50 ([2]; Homo sapiens, 168 h, read-out: mtDNA Synthesis (IC50)): > 25 µM
- EC50 ([3]; read-out: EC50, CPE): > 100 µM
- EC50 ([3]; read-out: EC50, NR): > 100 µM
- EC90 [4]: > 100 µM
- EC50 ([5]; read-out: EC50, CPE): > 100 µM
- EC50 ([5]; read-out: EC50, NR): > 100 µM
- IC50 [6]: 93.9 µM
- activity against Rhinovirus (in words) [7]: shows activity
- EC50 [7, 35]: 20 µM
- EC50 ([7]; read-out: EC50, CPE): 25 µM
- CC50 at 3 days [8]: > 100 µM
- CC50 [9]: > 100 µM
- CC50 [10]: > 100 µM
- CC50 ([11]; read-out: CC50, CPE): > 100 µM
- CC50 ([11]; read-out: CC50, NR, Neutral Red): > 100 µM
- EC90 ([12]; Hepatitis C virus, 96 h, read-out: EC90 (1-log reduction of replicon RNA), 4-days incubation / 96 hours, FIG. 1A (converted)): ~2.5 µM
- EC90 ([12]; Hepatitis C virus, read-out: EC90 values, range for the replicon clones, range over replicon clones of Table 1): 1.6 to 4.6 µM
- EC90 ([12]; read-out: EC90 (1-log reduction of replicon RNA) (converted), 4-days incubation / 96 hours, FIG. 1A): 5 µM
- CC50 [13]: > 100 µM
- activity against Dengue virus (in words) [14]: shows activity
- EC50 ([14]; read-out: EC50, CPE): 55 µM
- EC50 ([14]; Dengue virus, Vero, Neutral Red, read-out: EC50, NR): > 100 µM
- EC50 ([14]; Dengue virus, Vero, read-out: EC50, CPE): 32 µM
- CC50 [15]: 75 to 100 µM
- AUC(0-t) ([16]; rhesus monkey, in vivo): 44.2 ± 22.2 µM·h
- half-life ([16]; rhesus monkey, in vivo, read-out: T ½ (converted)): 3.9 ± 0.1 h
- Bioavailability [16]: 21 ± 11 F %
- Cmax [16]: 9.6 ± 2.7 µM
- Tmax [16]: 2 ± 1 h
- CC50 at 4 days [17]: > 100 µM
- EC50 [18, 35]: > 100 µM
- EC50 ([18]; read-out: EC50, CPE): > 100 µM
- CC50 ([19]; African green monkey): > 100 µM
- CC50 ([19]; read-out: CC50, CPE, Vero, SARSCoV test): > 100 µM
- CC50 ([19]; read-out: CC50, NR, Vero, SARSCoV test, Neutral Red): > 100 µM
- CC50 ([19]; read-out: CC50, NR, Vero, VEE test, Neutral Red): > 100 µM
- CC50 at 4 days [20]: 75 µM
- IC50 [21]: 98.2 µM
- activity against Yellow Fever virus (in words) [22]: shows activity
- CC50 at 4 days [23]: > 100 µM
- activity on HCV surrogate model BVDV (in words) [24]: lack of activity
- EC90 ([24]; BVDVcp): > 100 µM
- EC90 ([24]; BVDVncp): > 22 µM
- CC50 at 4 days [25]: > 100 µM
- activity against West Nile virus (in words) [26]: shows activity
- EC50 ([26]; NR = Neutral Red, read-out: EC50, NR): 12 µM
- EC50 ([26]; read-out: EC50, CPE): 32 µM
- activity on HBV (in words) [27]: lack of activity
- EC90 ([27]; Hepatitis B virus, HBV): > 10 µM
- activity on HIV (in words) [28]: lack of activity
- EC90 ([28]; Human immunodeficiency virus 1, HIV): > 100 µM
- CC50 [29]: > 100 µM
- CC50 at 5 days [30]: > 100 µM
- activity on Corona virus (in words) [31]: lack of activity
- EC90 ([31]; Human coronavirus 229E): > 100 µM
- CC50 at 4 days [32]: > 100 µM
- CC50 at 4 days [33]: > 100 µM

SMILES: C[C@@]1(F)[C@H](O)[C@@H](COP(=O)(O)OP(=O)(O)OP(=O)(O)O)O[C@H]1n1ccc(N)nc1=O
- IC50 ([34]; IC50, Wild-Type NS5B, batch 1): 1.7 ± 0.4 µM
- IC50 ([34]; IC50, Wild-Type NS5B, batch 2 and 3): 7.7 ± 1.2 µM
- IC50 ([34]; inhibitory concentration 50%, range, NS5B polymerase assay): 1.7 to 7.7 µM

SMILES: C[C@@]1(O)[C@H](O)[C@@H](CO)O[C@H]1n1cnc2c(N)ncnc21 [2′-C-methyladenosine]
- EC90 [4]: > 100 µM
- CC50 at 4 days [17]: 30 µM
- CC50 at 4 days [20]: 58 µM
- CC50 at 4 days [23]: 37 µM
- activity on HCV surrogate model BVDV (in words) [24]: greater activity
- EC90 ([24]; BVDVcp): 1.5 µM
- EC90 ([24]; BVDVncp): 1.2 µM
